Each structure is given as a SMILES string.

For this experiment, the target named is 3',5'-cyclic-AMP phosphodiesterase 4B (Homo sapiens) (UniProt Q07343). The experiment in a line: Inhibition of PDE4B2 (unknown origin) using FAM-cAMP as substrate at 10 uM after 60 min by fluorescence polarization assay.
Chain of 3',5'-cyclic-AMP phosphodiesterase 4B (Homo sapiens) (Q07343 whole entry): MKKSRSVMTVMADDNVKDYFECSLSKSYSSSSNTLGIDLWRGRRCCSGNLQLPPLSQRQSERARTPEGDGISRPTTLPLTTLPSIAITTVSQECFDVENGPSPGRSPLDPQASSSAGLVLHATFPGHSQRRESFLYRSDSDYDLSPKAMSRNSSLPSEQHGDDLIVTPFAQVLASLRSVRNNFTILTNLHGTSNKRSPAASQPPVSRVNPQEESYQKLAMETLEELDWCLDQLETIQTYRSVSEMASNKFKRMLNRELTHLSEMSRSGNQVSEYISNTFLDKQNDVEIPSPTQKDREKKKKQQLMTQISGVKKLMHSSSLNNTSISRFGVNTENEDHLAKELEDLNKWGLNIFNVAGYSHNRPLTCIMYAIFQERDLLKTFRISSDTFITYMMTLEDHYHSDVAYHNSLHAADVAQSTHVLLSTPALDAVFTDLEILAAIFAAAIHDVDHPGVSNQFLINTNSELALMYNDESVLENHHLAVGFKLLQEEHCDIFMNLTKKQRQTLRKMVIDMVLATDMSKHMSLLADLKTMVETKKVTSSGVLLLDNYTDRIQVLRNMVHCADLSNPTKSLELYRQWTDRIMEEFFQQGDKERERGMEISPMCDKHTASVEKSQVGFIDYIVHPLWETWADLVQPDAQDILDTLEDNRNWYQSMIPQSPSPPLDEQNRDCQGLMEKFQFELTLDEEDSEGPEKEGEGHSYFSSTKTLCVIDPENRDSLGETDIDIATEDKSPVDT

On to `CCCCn1c(=O)c2ccccc2n2c(-c3ccc(N(C)C)cc3)nnc12`, for which the inhibition amounted to 6%.
For `CCCCn1c(N/N=C/c2cccc(O)c2)nc2ccccc2c1=O` the value was 11%; for `COc1ccc(C2CNC(=O)C2)cc1OC1CCCC1` (stereo not given), 90%; for `CCCCn1c(=O)c2ccccc2n2c(-c3ccc(O)c(OC)c3)nnc12`, 62%.
For the compound `CCCCN1C(=O)c2ccccc2NC1c1cccc([N+](=O)[O-])c1` (stereo not given), the inhibition worked out at 15%.
`CCCCN1C(=O)c2ccccc2NC1c1ccc(N(C)C)cc1` (stereo not given) displayed an inhibition of 7%.
`CCCCn1c(=O)c2ccccc2n2c(-c3cccc(O)c3)nnc12` registered an inhibition of 44%.
To `CCCCn1c(=O)c2ccccc2n2c(-c3cccc([N+](=O)[O-])c3)nnc12` belongs 44%; to `CCCCN1C(=O)c2ccccc2NC1c1ccc(O)c(OC)c1` (stereo not given), 15%.
For `CCCCn1c(N/N=C/c2ccc(N(C)C)cc2)nc2ccccc2c1=O` the value was 19%.

These data come from ChEMBL document CHEMBL3046253, “Design, synthesis and in vitro PDE4 inhibition activity of certain quinazolinone derivatives for treatment of asthma” (Med Chem Res, 2012).
